According to paper PMC2730022 (Journal of medicinal chemistry, 2009):

Assays:
KB cells = assay: Protection from growth inhibition by nucleosides and AICA in KB cells; type: cell-based, human
FRα = settings: RT16 cells; folic acid = 1; cited from earlier work
FRβ = settings: D4 cells; folic acid = 1; cited from earlier work

SMILES	Growth in the presence of AICA at higher concentrations (KB cells; AICA 320 μM, compound above 100 nM)	Protection by AICA from toxicity at low and medium concentrations (KB cells; AICA 320 μM, compound ≤ 50 nM)	Protection by adenosine from growth inhibitory effects (KB cells; adenosine 60 μM)	Effect of thymidine on growth inhibitory effects (KB cells; thymidine 10 μM)	Relative binding affinity for FRα (FRα)	Relative binding affinity for FRβ (FRβ)
Nc1nc2sc(CCCCc3ccc(C(=O)N[C@@H](CCC(=O)O)C(=O)O)cc3)cc2c(=O)[nH]1 [Compound 4, N-{4-[4-(2-amino-4-oxo-3,4-dihydrothieno[2,3-d]pyrimidin-6-yl)butyl]benzoyl}-L-glutamic acid]	still significantly inhibited	almost completely protected	completely protective	did not alter		
Nc1nc2c(c(=O)[nH]1)N(C=O)C(CNc1ccc(C(=O)N[C@@H](CCC(=O)O)C(=O)O)cc1)CN2 (stereo partly drawn) [LCV, (6R,S) 5-formyl tetrahydrofolate]					0.25-0.45	< 0.01
